What was measured:
STAT6 = experiment: Immunoblot of liver lysates: STAT6; format: in vivo, mice; conditions: IP
Method: For ConA induced hepatitis experiments spleen and liver lysates were lysed in RIPA buffer containing 50 mM Tris, pH 7.4, 1% NP-40, 150 mM NaCl, 0.1% SDS, 0.5% sodium deoxycholate and protease inhibitors (5 μg/ml, Sigma), with protease and phosphatase (Sigma, Rehovot, Israel).
(§1) Lysates were centrifuged twice at 4° C. for 10 minutes in 14000 rpm. Equivalent amounts of lysates (15 μg/lane), determined by Bradford assay (Bio-Rad, Rehovot, Israel), were separated by sodium dodecyl sulfate polyacrylamide gel electrophoresis (SDS-PAGE) and transferred to nitrocellulose membranes.
For ConA induced hepatitis experiments proteins were detected with phospho-specific STAT1-Tyr701, STAT6-Tyr641, STAT1, and STAT6 antibodies from Cell Signaling. β-actin (abcam, UK) was used as a loading control.
(§2) Blots were developed with horseradish peroxidase-conjugated secondary antibodies (Jackson Laboratories Bar Harbor, Me.) and Western Blot-Luminol Reagent (Santa Cruz Biotechnology, CA, USA). Cell counting and western Blot quantification was performed using total Lab (Phoretix, USA) software.

AKT = experiment: Western blot of liver extracts of ob/ob mice: AKT activation; format: in vivo; conditions: per os daily 4 weeks, 15 μg (group D)
Method: For analysis of whole tissue lysates, snap-frozen liver pieces were homogenized in 0.75 ml of ice-cold PBS and centrifuged at 4° C. for 5 min in 2000 rpm. Pellets were lysed with 50 mM beta glycerophosphate, 1.5 mM EGTA, PH 7.3, 1 mM EDTA, PH 7.3, 1 mM DTT, 0.1 mM Sodium vanadate, 1% NP-40, and cocktails of protease and phosphatase (Sigma, Rehovot, Israel).
as §1
For metabolic syndrome experiments, proteins were detected with JNK-2, Phospho JNK (Thr183/Tyr185), Akt and phospho Akt (Ser 473) antibodies (Cell Signaling Technologies, MA). β-actin (abcam, UK) was used as the loading control.
as §2
Therefore, five groups of male C57BL/6 Ob/Ob mice were studied. […]

ob/ob mice = experiment: Serum ALT and AST (hepatic injury) in ob/ob mice; format: in vivo; conditions: for serum AST: vehicle group A 710
Method: The effect of β-glycolipids on liver injury was evaluated by serum aspartyl transaminase (AST) and alanine aminotransferase (ALT) activities, which were determined by a clinical chemistry analyzer, Reflovet Plus (Roche Diagnostics, GmbH, Mannheim, Germany).
Therefore, five groups of male C57BL/6 Ob/Ob mice were studied. Mice (6 per group) were fed (per os) daily for 4 weeks with 15 or 45 μg of GC (groups B and C, respectively) and 15 or 45 μg of ALIB-97 (groups D and E, respectively). Control mice (Group A) were administered vehicle only.

CCCCCCCCCCCCCC=CC(O)C(CO[C@@H]1OC(CO)[C@@H](O)C(O)C1O)NC(=S)NC12CC3CC(CC(C3)C1)C2 (stereo in doubt) [ALIB-97, N-adamantyl-N′-glucosylsphingosine thiourea]
STAT6 expression in the liver (STAT6; B6 mice): slightly increased | STAT6 expression in the liver (STAT6; CD1d−/− mice): markedly induced | AKT activation (AKT): decreased | serum AST (ob/ob mice; day 30, 15 μg per os daily): 289 u/L | serum ALT (ob/ob mice; day 30, 45 μg per os daily, vehicle group A 370, p<0.05): 165 u/L | serum AST (ob/ob mice; day 30, 45 μg per os daily): 124 u/L
